Measurements as given in patent US7776572B2, “Method for reducing loss of enzyme activity during storage” (Corning Incorporated, priority 1996, dated 2010).
Marks after values point to notes of the source that are not given here.

Experiments:
[1] = test system: ^125I-IgG (goat anti-mouse); assay: Radiometric determination of IgG binding to surfactant-coated polystyrene microtiter wells; conditions: for Total IgG binding, Non-Sterilized: coated polystyrene wells; for Total IgG binding, Non-Sterilized / Tight IgG binding, Non-Sterilized: not sterilized; for Total IgG binding, Non-Sterilized / Total IgG binding, Sterilized: after three PBS washes; for Total IgG binding, Sterilized / Tight IgG binding, Sterilized: gamma sterilized (1.5 Mrad); for Tight IgG binding, Sterilized / Tight IgG binding, Non-Sterilized: after two hours in PBS-Tween (0.05%)
Protocol: The hydrophobic surfaces used were flat bottom microtiter plates composed of high binding polystyrene (Corning Costar No. 2581) and medium binding polystyrene (Corning Costar No. 2587). Testing was performed with and without gamma radiation sterilization using cobalt 60 (1.5 Mrad).
The surfactants were applied to the test plates as described in Materials and Methods, followed by sterilization where indicated.
Levels of protein binding were determined using a radiolabeled protein, namely, ^125I-IgG (goat anti-mouse) purchased from DuPont/NEN. Unlabeled IgG in sodium carbonate buffer pH 9.2 was spiked with ^125I-IgG so that the final concentration of labeled IgG and cold IgG in the test solution was 10 μg/mL.
Aliquots of 0.1 milliliters of the protein solution were placed in quadruplicate in the wells of 8-well strips removed from the test microtiter plates. The wells were incubated overnight at 4° C. with shaking. The supernatants were removed from the wells, followed by three washes with 0.2 mL of PBS. The wells were then dried and individually counted to determine “total” IgG binding. After determining “total” binding, the wells were incubated for two hours in 0.2 mL of PBS-Tween (0.05%) at room temperature with shaking. The supernatants were removed from the wells followed by three washes with 0.2 mL of PBS. The wells were dried and individually counted to determine “tight” IgG binding.
Untreated high binding and medium binding plates were used as controls. A comparative experiment was also performed in which a BSA protein coating was used in place of a surfactant coating. The BSA was preabsorbed onto the walls of the wells and then washed to remove excess material. Testing was then performed using the radiolabeled IgG solution as described above.
Radiolabel measurements were performed in a double blind study at BioMolecular Assays (Woburn, Mass.). IgG binding values per microwell were converted to ng/cm^2 values using a surface area of 0.94 cm^2 for a 0.1 mL volume.

HRP-Goat A'Mouse IgG = assay: Enzymatic determination of protein binding to coated medium binding polystyrene plate; conditions: coated medium binding PS; versus uncoated high binding polystyrene plate; absorbance 405 nm
Protocol: The surfactants were coated onto a medium binding polystyrene plate (Corning Costar No. 2587) as described in Material and Methods. A medium binding polystyrene plate (Corning Costar No. 2587) and a high binding polystyrene plate (Corning Costar No. 2581) were used as controls.
(a) HRP-Goat A'Mouse IgG: Kirkegaard & Perry Laboratories, Inc. Catalog No. 074-1806. Stock solution: 0.5 mg/ml; working concentration: 0.04 μg/ml. The working concentration was obtained by adding 11 μl of the stock solution per 25 mls of PBS pH 7.4 to produce a work stock (WS), and then diluting 1:6 (i.e., 10 mls WS+50 mls PBS pH 7.4).
(1) 100 μl-well of HRP-Goat A'Mouse IgG at a concentration of 0.04 μg/ml were added to the test wells and incubated for 1 hour at room temperature.
(2) The wells were then washed 5 times with the 1M wash solution. Each wash include a 5 minute soak followed by decanting.
(3) 100 μl/well of substrate (30 mls ABTS+30 mls H2O2) were added to the test wells and incubated for 15 minutes at room temperature in the dark.
(4) 100 μl/well of stopping solution (1% SDS) were added to the test wells.
(5) The plates were then shaken and read at 405 nm.
(6) Reduction in binding was determined by comparing the absorbance measured in step (5) with the absorbance measured for a high binding polystyrene plate which had not been treated with a non-ionic surfactant but otherwise subjected to steps (1) to (5).

Horse IgG = assay: Protein binding by colloidal gold staining, coated medium binding polystyrene plates; conditions: coated medium binding PS; IgG 10 μg/ml, pH 9.4
Protocol: Except where indicated, the non-ionic surfactants were applied to the hydrophobic surfaces being tested as a 0.1% (weight/volume) solution in isopropanol. A sufficient amount of coating solution was used to cover the surface being testing with a thin layer of the solution (e.g., 25 μl of the solution per well for a standard 24-well plate). In some cases, the solution was applied to surface by spraying; in others, it was poured onto the surface (into the well). Except where indicated, coated samples were either dried at 70° C. for 30 minutes in an air circulated oven or dried at room temperature overnight to evaporate the isopropanol.
Protein binding was determined in some examples using a colloidal gold straining procedure. In accordance with this procedure, colloidal gold becomes electrostatically attached to bound protein and is detected by measuring absorbance at 550 nanometers. Bio-Rad Laboratories' Colloidal Gold Total Protein Stain was used for this purpose, with absorbance being measured with a Cambridge Technologies Plate Reader (No. 7520).
The surfactants were coated onto medium binding polystyrene plates (Corning Costar No. 2587) as described in Material and Methods.
The plates were incubated with IgG as follows: 0.1 ml of Horse IgG (Pierce Labs) at a working concentration of 10 μg/ml in 0.10M NaHCO3 buffer (pH9.4) were added to each well, incubated 30 minutes on a rocker table, and rinsed with dI H2O. The plates were gold stained overnight (0.3 ml/well), rinsed in dI H2O, air dried, and absorbance was measured at 550 nm.

[2] = test system: BSA protein (Bovine Serum Albumin, Fraction V); assay: BSA binding to coated polystyrene 24-well plates at different pH, colloidal gold stain; conditions: for Absorbance (550 nm) pH = 9.2: BSA 10 μg/ml in 0.10 M NaHCO3 buffer; for Absorbance (550 nm) pH = 7.4: BSA 10 μg/ml in 0.10 M PBS; for Absorbance (550 nm) pH = 4.6: BSA 10 μg/ml in 0.10 M acetate buffer
Protocol: Polystyrene plates having 24 wells (Corning Costar #9447) were coated as described in Materials and Methods.
BSA protein (Bovine Serum Albumin, Fraction V, Sigma) was prepared at 10 μg/ml in 0.10 M acetate buffer (pH=4.6), in 0.10 M PBS (pH=7.4), and in 0.10 M NaHCO3 buffer (pH=9.2). Wells of each coated plate, along with uncoated controls, were aliquoted 0.50 ml each of the protein solutions. The samples were run in triplicate.
The plates were placed on a rocker table for 30 minutes at 23° C. The protein solutions were then emptied from the plates, and the wells were rinsed three times with dl H2O. Thereafter, 1.0 ml of colloidal gold stain was added to each well (see Materials and Methods). The plates were placed on a rocker table overnight, rinsed three times with dI H2O, and air dried. Absorbance at 550 nm was then read using the Cambridge Technologies Plate Reader.

rat = conditions: cited from earlier work
MDCK cells [3] = assay: Cytotoxicity of extracts of coated plates; format: cell-based; conditions: media extract of coated plates (37° C., 48 hours), MDCK 72 hours, Gram Crystal Violet
Protocol: Cytotoxicity experiments were performed using MDCK cells. The non-ionic surfactants tested were Pluronic L-121, L-122, and P-123; Span 80 and 85; and Brij 30, 72 and 93. These molecules were coated onto 24-well plates (Corning Costar #9447) from 0.1% (w/v) in isopropanol. Untreated polystyrene and normal tissue culture treated polystyrene (Corning Costar #25820) 24-well plates were used as controls. All plates were incubated at 37° C. for 48 hours with 2 ml/well of complete DMEM media containing 10% Fetal Bovine Serum (FBS). This incubation was performed in order to extract any potentially toxic compounds from the coated surface into the cell growth serum. The FBS solutions were then transferred to tissue culture treated polystyrene and each well was inoculated with ≈2×10^4 cells/well of MDCK cells, and then incubated at 37° C. for 72 hours in a 5% CO2 atmosphere. Cells were then stained with Gram Crystal Violet.

BSA = assay: Polymer blends molded into petri dishes, BSA binding by colloidal gold
Fetal Bovine Serum (FBS) = assay: Polymer blends molded into petri dishes, FBS protein binding by colloidal gold
MDCK cells [4] = assay: MDCK cell attachment to coated polystyrene 24-well plates; format: cell-based; conditions: coated PS 24-well, gamma sterilized, media with 5% FBS, two days, visual
Protocol: (§1) The procedures used were as follows. Polystyrene 24-well plates were coated with the non-ionic surfactants listed in Table 5 in accordance with the procedures described in Materials and Methods. Uncoated plates were used as a control. For comparison, plates with a covalently attached acrylamide coating (Corning Costar Catalog #2500) and with a stearic acid coating were also tested. The stearic acid coating was applied in the same manner as the non-ionic surfactants again using a 0.1% (w/v) solution.
(§2) The plates were gamma sterilized at 1.5 Mrad and then inoculated with 5.6×10^4 MDCK […] per well in 1 ml of complete media containing 5% FBS (Fetal Bovine Serum). Incubation was carried out at 37° C. in a 5% CO2 atmosphere for two days. The plates were fixed and stained, and cell attachment was noted. Following this, the wells were stained using the colloidal gold technique to detect bound protein. Only visual observations were made.
Experiments were also performed with cells suspended in serum. The cells used in these experiments were MDCK cells. The surfactants used were the same as used in Table 5. Again, reduced binding of the cells to surfaces treated with a non-ionic surfactant was observed.

bound protein = assay: Colloidal gold staining of bound protein after MDCK culture in media containing 5% FBS, visual; conditions: colloidal gold after cell culture, visual observation
Protocol: as §1, §2

IgG = assay: Coating durability using water washes, IgG binding by colloidal gold; conditions: for Absorbance (550 nm) Initial: coated polystyrene, no water wash; for Absorbance (550 nm) 1 Time 1 hr 23° C. / Absorbance (550 nm) 1 Time 24 hr 23° C. / Absorbance (550 nm) 1 Time 24 hr 37° C. / Absorbance (550 nm) 1 Time 24 hr 70° C.: dI H2O wash 1 time; for Absorbance (550 nm) 6 Times 30 min each 23° C.: dI H2O wash 6 times
Protocol: Polystyrene plates having 24 wells (Corning Costar #9447) were coated with these surfactants as described in Materials and Methods. Durability was tested by adding dI H2O to the wells of a test plate (3.0 mls/well), following which the plate was placed on a rocker table. […] The protein solution was incubated with the plate on a rocker table for 30 minutes at 23° C., following which the plate was H2O rinse 3× (3 mls each time). The colloidal gold staining procedure described above was used to reveal bound protein. The staining comprised an overnight incubation on a rocker table at 23° C., a dI H2O rinse, drying at room temperature, and reading at 550 nm.

[5] = blended at 5% into polypropylene, silver enhancer

Compound	Total IgG binding, Non-Sterilized [1] [ng/cm^2]	Total IgG binding, Sterilized [1] [ng/cm^2]	Tight IgG binding, Sterilized [1] [ng/cm^2]	Tight IgG binding, Non-Sterilized [1] [ng/cm^2]	% Reduction in Protein Binding (HRP-Goat A'Mouse IgG)	IgG Protein Binding Absorbance (550 nm) (Horse IgG)	Absorbance (550 nm) pH = 9.2 [2]	Absorbance (550 nm) pH = 7.4 [2]	Absorbance (550 nm) pH = 4.6 [2]	LD50 (rat) [grams/Kg]	cell growth and morphology (MDCK cells [3])	Bound Protein Absorbance (550 nm) BSA (BSA; [5])	Bound Protein Absorbance (550 nm) FBS (Fetal Bovine Serum (FBS); [5])	Absorbance (550 nm) Initial (IgG)	Absorbance (550 nm) 1 Time 1 hr 23° C. (IgG)	Absorbance (550 nm) 1 Time 24 hr 23° C. (IgG)	Absorbance (550 nm) 1 Time 24 hr 37° C. (IgG)	Absorbance (550 nm) 1 Time 24 hr 70° C. (IgG)	Absorbance (550 nm) 6 Times 30 min each 23° C. (IgG)	other results
CCCCCCCCCCCCCCCCCC(=O)OCCOCCOCCOCCOCCOCCOCCOCCO [PEO(8) STEARATE]	6	15	9	3	99.1%	0.00	0.00	0.00	0.00	>31	–	–	–	–	–	–	–	–	–	–
CCCCCCCCCCCCCCCCCCOCCOCCO [PEO(2) STEARYL ETHER]	83	36	17	28	97.9%	0.00	0.00	0.00	0.00	>25	confluent cell growth with normal cell morphology	0.000	0.000	–	–	–	–	–	–	BSA or FBS protein binding (BSA; blend in polypropylene or EVA): no detectable; Bound Protein Absorbance (550 nm) BSA (BSA; blended at 5% into polystyrene): 0.008; Bound Protein Absorbance (550 nm) FBS (Fetal Bovine Serum (FBS); blended at 5% into polystyrene): 0.009
SORBITOL MONO-PALMITATE	–	–	–	–	88.9* %	0.00	0.00	0.00	0.00	–	–	–	–	0.00	0.00	0.00	0.00	0.00	0.02-0.06	MDCK Attachment (MDCK cells [4]): None; Visual Color Upon Protein Staining (bound protein): None
SORBITOL TRI-OLEATE	–	–	–	–	–	–	–	–	–	–	confluent cell growth with normal cell morphology	0.000	0.000	0.00	0.00	0.00	0.00	0.00	0.00	–
